From patent publication US7449463B2, “Morpholinyl containing benzimidazoles as inhibitors of respiratory syncytial virus replication” (Tibotec Pharmaceuticals Ltd., priority 2003, dated 2008)

Tested on: Respiratory Syncytial Virus
Assay: microbe, parasite or virus in culture
Type: cell-based
Excerpt: In vitro Screening for Activity against Respiratory Syncytial Virus.
The percent protection against cytopathology caused by viruses (antiviral activity or EC50) achieved by tested compounds and their cytotoxicity (CC50) are both calculated from dose-response curves. The selectivity of the antiviral effect is represented by the selectivity index (SI), calculated by dividing the CC50 (cytotoxic dose for 50% of the cells) by the EC50 (antiviral activity for 50% of the cells).
Automated tetrazolium-based colorimetric assays were used for determination of EC50 and CC50 of test compounds. Flat-bottom, 96-well plastic microtiter trays were filled with 180 μl of Eagle's Basal Medium, supplemented with 5% FCS (0% for FLU) and 20 mM Hepes buffer. Subsequently, stock solutions (7.8× final test concentration) of compounds were added in 45 μl volumes to a series of triplicate wells so as to allow simultaneous evaluation of their effects on virus- and mock-infected cells. Five five-fold dilutions were made directly in the microtiter trays using a robot system. Untreated virus controls, and HeLa cell controls were included in each test. Approximately 100 TCID50 of Respiratory Syncytial Virus was added to two of the three rows in a volume of 50 μl. The same volume of medium was added to the third row to measure the cytotoxicity of the compounds at the same concentrations as those used to measure the antiviral activity. After two hours of incubation, a suspension (4×10^5 cells/ml) of HeLa cells was added to all wells in a volume of 50 μl. The cultures were incubated at 37° C. in a 5% CO2 atmosphere. Seven days after infection the cytotoxicity and the antiviral activity was examined spectrophotometrically. To each well of the microtiter tray, 25 μl of a solution of MTT (3-(4,5-dimethylthiazol-2-yl)-2,5-diphenyltetrazolium bromide) was added. The trays were further incubated at 37° C. for 2 hours, after which the medium was removed from each cup. Solubilization of the formazan crystals was achieved by adding 100 μl 2-propanol. Complete dissolution of the formazan crystals were obtained after the trays have been placed on a plate shaker for 10 min. Finally, the absorbances were read in an eight-channel computer-controlled photometer (Multiskan MCC, Flow Laboratories) at two wavelengths (540 and 690 nm). The absorbance measured at 690 nm was automatically subtracted from the absorbance at 540 nm, so as to eliminate the effects of non-specific absorption.

[1] = RSV-infected HeLa cells, MTT readout seven days after infection, −log of EC50 in molar units

Compound	Activity [1]	further results
2-[5,7-dimethyl-2-(2-morpholin-4-ylethyl-piperidin-4-ylamino)-benzoindazol-1-ylmethyl]-6-methyl-pyridin-3-ol [Compound 162]	7.9	
4-{(3,5-Dimethyl-phenyl)-[3-(3-hydroxy-pyridin-2-ylmethyl)-2-(3-morpholin-4-yl-propylamino)-3H-benzoimidazol-5-ylmethyl]-amino}-butyramide [Compound 228]		Activity (pEC50 (−log of EC50 when expressed in molar units), protection against RSV cytopathology): 8.4
Cc1ccc(O)c(Cn2c(NCCCN3CCOCC3)nc3ccc(CNc4cc(C#N)ccc4CCO)cc32)n1 [Compound 1]	10	
Cc1ccc(O)c(Cn2c(NCCCN3CCOCC3)nc3ccc(CNc4cc(Br)ccc4CCCO)cc32)n1 [Compound 2]	10	
Cc1ccc(O)c(Cn2c(NCCCN3CCOCC3)nc3ccc(CNc4cc(Cl)ccc4CCCO)cc32)n1 [Compound 4]	9.9	
Cc1ccc(OCCO)c(NCc2ccc3nc(NCCCN4CCOCC4)n(Cc4nc(C)ccc4O)c3c2)c1 [Compound 5]	9.8	
C=Cc1ccc(CCO)c(NCc2ccc3nc(NCCCN4CCOCC4)n(Cc4nc(C)ccc4O)c3c2)c1 [Compound 6]	>9.6	
Cc1ccc(CCO)c(NCc2ccc3nc(NCCCN4CCOCC4)n(Cc4nc(C)ccc4O)c3c2)c1 [Compound 7]	9.6	
COc1ccc(CCO)c(NCc2ccc3nc(NCCCN4CCOCC4)n(Cc4nc(C)ccc4O)c3c2)c1 [Compound 9]	9.6	
C#Cc1ccc(CCO)c(NCc2ccc3nc(NCCCN4CCOCC4)n(Cc4nc(C)ccc4O)c3c2)c1 [Compound 10]	9.6	
Cc1ccc(O)c(Cn2c(NCCCN3CCOCC3)nc3ccc(CNc4cc(Br)ccc4CCO)cc32)n1 [Compound 11]	9.6	
Cc1ccc(O)c(Cn2c(NCCCN3CCOCC3)nc3ccc(CNc4cc(C(F)(F)F)ccc4CCCO)cc32)n1 [Compound 13]	9.5	
COc1ccc(CCCO)c(NCc2ccc3nc(NCCCN4CCOCC4)n(Cc4nc(C)ccc4O)c3c2)c1 [Compound 14]	9.4	
Cc1ccc(CCC(C)O)c(NCc2ccc3nc(NCCCN4CCOCC4)n(Cc4nc(C)ccc4O)c3c2)c1 (stereo not drawn) [Compound 15]	9.3	
Cc1ccc(CCC(N)=O)c(NCc2ccc3nc(NCCCN4CCOCC4)n(Cc4nc(C)ccc4O)c3c2)c1 [Compound 16]	9.3	
Cc1ccc(O)c(Cn2c(NCCCN3CCOCC3)nc3ccc(CNc4cc(C(C)C)ccc4CCO)cc32)n1 [Compound 17]	9.3	
Cc1ccc(O)c(Cn2c(NCCCN3CCOCC3)nc3ccc(CNc4cc(F)ccc4CCO)cc32)n1 [Compound 18]	9.6	
Cc1ccc(C=CCO)c(NCc2ccc3nc(NCCCN4CCOCC4)n(Cc4nc(C)ccc4O)c3c2)c1 [Compound 19]	9.3	
Cc1ccc(CCCCO)c(NCc2ccc3nc(NCCCN4CCOCC4)n(Cc4nc(C)ccc4O)c3c2)c1 [Compound 20]	9.2	

Compound	Activity [1]	further results
Cc1ccc(O)c(Cn2c(NCCCN3CCOCC3)nc3ccc(CNc4ccccc4CCO)cc32)n1 [Compound 22]	9.1	
Cc1ccc(O)c(Cn2c(NCCCN3CCOCC3)nc3ccc(CNc4cccc(C)c4CCO)cc32)n1 [Compound 25]	8.9	
Cc1ccc(O)c(Cn2c(NCCCN3CCOCC3)nc3ccc(CNc4cccc(Br)c4)cc32)n1 [Compound 26]	8.7	
Cc1ccc(O)c(Cn2c(NCCCN3CCOCC3)nc3ccc(CNc4ccccc4C#N)cc32)n1 [Compound 27]	8.7	
Cc1cccc(NCc2ccc3nc(NCCCN4CCOCC4)n(Cc4nc(C)ccc4O)c3c2)c1 [Compound 28]	8.6	
Cc1ccc(O)c(Cn2c(NCCCN3CCOCC3)nc3ccc(CNc4ccccc4CO)cc32)n1 [Compound 29]	8.6	
C#Cc1cccc(NCc2ccc3nc(NCCCN4CCOCC4)n(Cc4nc(C)ccc4O)c3c2)c1 [Compound 30]	8.6	
Cc1ccc(O)c(Cn2c(NCCCN3CCOCC3)nc3ccc(CNc4cccc(Cl)c4)cc32)n1 [Compound 31]	8.6	
Cc1ccc(O)c(Cn2c(NCCCN3CCOCC3)nc3ccc(CNc4ccccc4CCC(N)=O)cc32)n1 [Compound 33]	8.6	
Cc1ccc(C#CCO)c(NCc2ccc3nc(NCCCN4CCOCC4)n(Cc4nc(C)ccc4O)c3c2)c1 [Compound 34, 2-[6-{[2-(3-Hydroxy-prop-1-ynyl)-5-methyl-phenylamino]-methyl}-2-(3-morpholin-4-yl-propylamino)-benzoimidazol-1-ylmethyl]-6-methyl-pyridin-3-ol]	8.6	
Cc1ccc(O)c(Cn2c(NCCCN3CCOCC3)nc3ccc(CNc4cccc(F)c4)cc32)n1 [Compound 35]	8.5	
Cc1ccc(O)c(Cn2c(NCCCN3CCOCC3)nc3ccc(CNc4cccc(OC(F)(F)F)c4)cc32)n1 [Compound 36]	8.5	
Cc1ccc(O)c(Cn2c(NCCCN3CCOCC3)nc3ccc(CNc4ccc(S(N)(=O)=O)cc4)cc32)n1 [Compound 37]	8.5	
Cc1ccc(O)c(Cn2c(NCCCN3CCOCC3)nc3ccc(CNc4ccc(C(N)=O)cc4)cc32)n1 [Compound 38]	8.5	
Cc1ccc(NCCO)c(NCc2ccc3nc(NCCCN4CCOCC4)n(Cc4nc(C)ccc4O)c3c2)c1 [Compound 39]	8.5	
Cc1ccc(C)c(NCc2ccc3nc(NCCCN4CCOCC4)n(Cc4nc(C)ccc4O)c3c2)c1 [Compound 40]	8.4	
CCc1ccccc1NCc1ccc2nc(NCCCN3CCOCC3)n(Cc3nc(C)ccc3O)c2c1 [Compound 41]	8.3	
Cc1ccc(O)c(Cn2c(NCCCN3CCOCC3)nc3ccc(CNc4ccccc4CCN4CCOCC4)cc32)n1 [Compound 42]	8.3	
Cc1ccc(O)c(Cn2c(NCCCN3CCOCC3)nc3ccc(CNc4cccc(C)c4CO)cc32)n1 [Compound 43]	8.2	

Compound	Activity [1]	further results
Cc1ccc(O)c(Cn2c(NCCCN3CCOCC3)nc3ccc(CNc4cc(C(N)=O)ccc4CCO)cc32)n1 [Compound 44]	8.1	
Cc1ccc(O)c(Cn2c(NCCCN3CCOCC3)nc3ccc(CNc4ccccc4C(N)=O)cc32)n1 [Compound 45]	7.9	
Cc1ccc(O)c(Cn2c(NCCCN3CCOCC3)nc3ccc(CNc4cccc(CCO)c4)cc32)n1 [Compound 47]	7.9	
Cc1ccc(O)c(Cn2c(NCCCN3CCOCC3)nc3ccc(CNc4cc(S(C)(=O)=O)ccc4CCO)cc32)n1 [Compound 48]		EC50 (human respiratory syncytial virus, 168 h, RSV-infected HeLa cells, MTT readout seven days after infection, −log of EC50 in molar units): 20 nM
Cc1cc(C)cc(NCc2ccc3c(c2)nc(NCCCN2CCOCC2)n3Cc2nc(C)ccc2O)c1 [Compound 51]	7.2	
Cc1ccc(O)c(Cn2c(NCCCN3CCOCC3)nc3ccc(CO)cc32)n1 [Compound 52]	7.2	
Cc1ccc(O)c(Cn2c(NCCCN3CCOCC3)nc3cc(CO)ccc32)n1 [Compound 53]	5.6	
Cc1cc(C)cc(N(CCCCO)Cc2ccc3nc(NCCCN4CCOCC4)n(Cc4nc(C)ccc4O)c3c2)c1 [Compound 61]	9.5	
Cc1cc(C)cc(N(CCCO)Cc2ccc3nc(NCCCN4CCOCC4)n(Cc4nc(C)ccc4O)c3c2)c1 [Compound 63]	9.3	
Cc1cc(C)cc(N(CCCCCO)Cc2ccc3nc(NCCCN4CCOCC4)n(Cc4nc(C)ccc4O)c3c2)c1 [Compound 64]	9.3	
Cc1cc(C)cc(N(CCC(=O)O)Cc2ccc3nc(NCCCN4CCOCC4)n(Cc4nc(C)ccc4O)c3c2)c1 [Compound 69]	8.7	
Cc1cc(C)cc(N(Cc2ccc3nc(NCCCN4CCOCC4)n(Cc4nc(C)ccc4O)c3c2)Cc2c[nH]cn2)c1 [Compound 81]	8.9	
COCCN(Cc1ccc2nc(NCCCN3CCOCC3)n(Cc3nc(C)ccc3O)c2c1)c1cc(C)cc(C)c1 [Compound 82]	8.6	
Cc1ccc(O)c(Cn2c(NCCCN3CCOCC3)nc3ccc(CN(CCO)c4cccc(Br)c4)cc32)n1 [Compound 85]	9.3	
Cc1cccc(N(CCO)Cc2ccc3nc(NCCCN4CCOCC4)n(Cc4nc(C)ccc4O)c3c2)c1 [Compound 86]	9.3	
Cc1ccc(O)c(Cn2c(NCCCN3CCOCC3)nc3ccc(CN(CCO)c4ccc(C#N)cc4)cc32)n1 [Compound 88]	9.1	
Cc1cccc(N(CCCCO)Cc2ccc3nc(NCCCN4CCOCC4)n(Cc4nc(C)ccc4O)c3c2)c1 [Compound 92]	8.8	
Cc1cccc(N(CCCO)Cc2ccc3nc(NCCCN4CCOCC4)n(Cc4nc(C)ccc4O)c3c2)c1 [Compound 93]	8.7	
Cc1ccc(O)c(Cn2c(NCCCN3CCOCC3)nc3ccc(CN(CCCO)c4cccc(Br)c4)cc32)n1 [Compound 95]	8.6	
